Assay results: patent US6376521B1, “A3 adenosine receptor antagonists” (The United States of America as represented by the …, priority 1998, dated 2002)
Read-outs that look alike come from different tables or passages of the source. One block for each compound: values may come before it.

Columns and labels:
rat A3 receptors = molecular target: T1, rat A3 receptors (Rattus norvegicus, UniProt P28647); assay: Displacement of specific [125I]AB-MECA binding at rat A3 receptors stably expressed in CHO cells; settings: Table 4
T1 construct: expressed in transfected cells
T1 sequence (P28647 1-320): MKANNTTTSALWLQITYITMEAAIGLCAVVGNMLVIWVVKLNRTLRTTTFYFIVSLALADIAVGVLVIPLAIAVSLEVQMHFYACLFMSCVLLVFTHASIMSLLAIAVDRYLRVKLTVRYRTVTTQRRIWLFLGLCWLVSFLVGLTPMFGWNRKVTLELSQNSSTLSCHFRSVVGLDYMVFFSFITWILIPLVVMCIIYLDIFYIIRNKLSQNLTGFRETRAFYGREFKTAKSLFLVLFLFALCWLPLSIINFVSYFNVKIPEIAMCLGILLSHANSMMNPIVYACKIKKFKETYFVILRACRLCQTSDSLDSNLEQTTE

A1 adenosine receptors = molecular target: T2, A1 adenosine receptors (Rattus norvegicus, UniProt P25099); assay: Displacement of specific [3H]R-PIA binding in rat brain membranes; settings: for Ki: [3H]R-PIA, rat brain membranes, n = 3-5, read-out: rA1 Ki ± S.E.M.; for inhibition at 100 µM: read-out: rA1 % inhibition (percentage of specific binding displaced)
T2 construct: from tissue
T2 sequence (P25099 1-326): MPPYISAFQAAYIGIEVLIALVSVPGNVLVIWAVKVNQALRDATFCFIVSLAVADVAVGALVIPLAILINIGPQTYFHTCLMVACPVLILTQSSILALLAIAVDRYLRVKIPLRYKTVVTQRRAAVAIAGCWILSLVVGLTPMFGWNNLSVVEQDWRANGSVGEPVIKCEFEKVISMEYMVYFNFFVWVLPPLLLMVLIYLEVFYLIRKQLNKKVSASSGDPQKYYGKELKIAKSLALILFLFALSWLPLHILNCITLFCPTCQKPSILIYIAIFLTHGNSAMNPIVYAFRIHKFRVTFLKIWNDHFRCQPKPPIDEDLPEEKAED

human A3 receptors = molecular target: T3, human A3 receptors (Homo sapiens, UniProt P0DMS8); assay: Displacement of specific [125I]AB-MECA binding at human A3 receptors expressed in HEK cells, in membranes; settings: for Ki: [125I]AB-MECA, HEK cell membranes, n = 3-4, read-out: hA3 Ki ± S.E.M.; for rA1/hA3: ratio of affinities rat A1 vs human A3
T3 construct: expressed in transfected cells
T3 sequence (P0DMS8 1-318): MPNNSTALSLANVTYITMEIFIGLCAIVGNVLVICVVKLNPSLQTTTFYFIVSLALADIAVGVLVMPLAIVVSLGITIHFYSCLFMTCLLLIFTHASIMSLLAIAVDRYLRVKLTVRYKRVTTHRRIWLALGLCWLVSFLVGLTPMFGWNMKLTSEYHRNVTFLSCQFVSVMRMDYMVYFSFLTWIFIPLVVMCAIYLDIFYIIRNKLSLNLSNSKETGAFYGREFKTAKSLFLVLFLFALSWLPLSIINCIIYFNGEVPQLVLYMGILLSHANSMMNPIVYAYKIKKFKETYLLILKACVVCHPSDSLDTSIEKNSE

A2A adenosine receptors = molecular target: T4, A2A adenosine receptors (Rattus norvegicus, UniProt P30543); assay: Displacement of specific [3H]CGS 21680 binding in rat striatal membranes; settings: for Ki: [3H]CGS 21680, rat striatal membranes, n = 3-6, read-out: rA2A Ki ± S.E.M.
T4 construct: from tissue
T4 sequence (P30543 whole entry): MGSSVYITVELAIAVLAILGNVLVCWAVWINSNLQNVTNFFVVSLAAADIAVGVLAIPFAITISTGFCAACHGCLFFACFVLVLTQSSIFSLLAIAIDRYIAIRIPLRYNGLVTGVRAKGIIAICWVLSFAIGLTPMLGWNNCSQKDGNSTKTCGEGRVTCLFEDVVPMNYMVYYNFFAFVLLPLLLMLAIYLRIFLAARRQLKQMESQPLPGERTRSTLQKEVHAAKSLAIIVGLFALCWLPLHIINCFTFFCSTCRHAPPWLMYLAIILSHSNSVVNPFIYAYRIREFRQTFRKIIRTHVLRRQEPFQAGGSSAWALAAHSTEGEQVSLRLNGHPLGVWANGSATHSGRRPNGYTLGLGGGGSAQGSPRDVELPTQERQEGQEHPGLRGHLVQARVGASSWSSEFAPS

- Ki (rat A3 receptors; [125I]AB-MECA, CHO cells, n = 3-5, read-out: rA3 Ki): 0.183 ± 0.033 µM
- rA3/hA3 (rat A3 receptors; ratio of affinities at rat vs. human A3 receptors): 22
- rA1/rA3 (rat A3 receptors; ratio of affinities rat A1 vs rat A3): 42
- Ki (A1 adenosine receptors; Table 2, compounds 33-58): 7.77 ± 1.83 µM
- Ki (human A3 receptors; Table 2, compounds 33-58): 0.00829 µM
- rA1/hA3 (human A3 receptors; Table 2): 940
Compound: CCCOC(=O)c1c(-c2ccccc2)nc(CC)c(C(=O)SCC)c1CC [Compound 49a, 5-Propyl 2,4-diethyl-3-(ethylsulfanylcarbonyl)-6-phenylpyridine-5-carboxylate]

- Ki (A1 adenosine receptors; Table 2, compounds 33-58): 10.1 ± 2.1 µM
- Ki (human A3 receptors; Table 2, compounds 33-58): 0.0168 ± 0.002 µM
- rA1/hA3 (human A3 receptors; Table 2): 600
- Ki (A2A adenosine receptors; Table 2, compounds 33-58): 12.6 ± 1.7 µM
Compound: CCOC(=O)c1c(-c2ccccc2)nc(CCOC)c(C(=O)SCC)c1CC [Compound 56, 5-Ethyl 2-(2-methoxylethyl)-4-ethyl-3-(ethylsulfanylcarbonyl)-6-phenylpyridine-5-carboxylate]

- rA1 percentage of specific binding displaced (A1 adenosine receptors; Table 2, at 10^−4 M): 30% (10^−4)
- Ki (human A3 receptors; Table 2, compounds 33-58): 0.145 ± 0.044 µM
- rA1/hA3 (human A3 receptors; Table 2): >500
- rA2A percentage of specific binding displaced (A2A adenosine receptors; Table 2, at 10^−4 M): 22% (10^−4)
Compound: CCOC(=O)c1c(-c2ccccc2)nc(C2CCC2)c(C(=O)SCC)c1CC [Compound 58, 5-Ethyl 2-cyclobutyl-4-ethyl-3-(ethylsulfanylcarbonyl)-6-phenylpyridine-5-carboxylate]

- rA1/hA3 (human A3 receptors; Table 2): 590
Compound: CCCOC(=O)c1c(-c2ccccc2F)nc(CC)c(C(=O)SCC)c1CCC [Compound 25]

- rA1/hA3 (human A3 receptors; Table 2): 210
Compound: CCCOC(=O)c1c(-c2ccccc2)nc(CC)c(C(=O)SCCO)c1CCC [Compound 12]

- rA1/hA3 (human A3 receptors; Table 2): 280
Compound: CCCOC(=O)c1c(-c2cccc(F)c2)nc(CC)c(C(=O)SCC)c1CCC [Compound 26]

- hA3 percentage of specific binding displaced (human A3 receptors; Table 2, at 10^−6 M): 28% (10^−6)
Compound: CCOC(=O)c1c(-c2ccccc2)nc(CC)c(C(=O)SCC)c1CCCN1C(=O)c2ccccc2C1=O [Compound 5]
- rA2A displacement of specific binding (class d) (A2A adenosine receptors; Table 2, at 10^−4 M): d (10^−4) (Displacement of <10% of specific binding at the indicated concentration (M).)

- rA1/hA3 (human A3 receptors; Table 2): 630
Compound: CCCc1c(C(=O)SCC)c(CC)nc(-c2ccccc2)c1C(=O)OCCCF [Compound 23]

- rA1/hA3 (human A3 receptors; Table 2): 13
Compound: CCCc1c(C(=O)SCC)c(CC)nc(-c2ccccc2)c1C(=O)OCC(F)(F)C(F)(F)F [Compound 24]

- Ki (A1 adenosine receptors; Table 2, compounds 33-58): 9.56 ± 4.09 µM
- Ki (A2A adenosine receptors; Table 2, compounds 33-58): 2.56 ± 0.13 µM
Compound: CCOC(=O)c1c(C)nc(-c2ccccc2)c(C(=O)OCC)c1C=O [Compound 41, 3,5-Diethyl 2-methyl-4-formyl-6-phenylpyridine-3,5-dicarboxylate]

- rA1/hA3 (human A3 receptors; Table 2): 7400
Compound: CCCCSC(=O)c1c(CC)nc(-c2cccc(Cl)c2)c(C(=O)OCCC)c1CC [Compound 7]
- rA2A displacement of specific binding (class d) (A2A adenosine receptors; Table 2, at 10^−4 M): d (10^−4) (Displacement of <10% of specific binding at the indicated concentration (M).)

- rA1/hA3 (human A3 receptors; Table 2): 150
Compound: CCCOC(=O)c1c(-c2ccccc2)nc(CC)c(C(=O)SCCF)c1CCC [Compound 15]

- rA1/hA3 (human A3 receptors; Table 2): 460
Compound: CCCOC(=O)c1c(-c2ccccc2)nc(CC)c(C(=O)SCC(F)(F)F)c1CCC [Compound 16]

- rA1/hA3 (human A3 receptors; Table 2): 8.20
Compound: CCCOC(=O)c1c(-c2ccccc2)nc(CC)c(C(=O)SCC)c1CC [Compound 6]
- rA2A displacement of specific binding (class d) (A2A adenosine receptors; Table 2, at 10^−5 M): d (10^−5) (Displacement of <10% of specific binding at the indicated concentration (M).)

- Ki (A2A adenosine receptors; Table 2, compounds 33-58): 2.4 ± 0.22 µM
Compound: CCOC(=O)c1c(C)nc(-c2ccccc2)c(C(=O)OCC)c1C=Cc1ccccc1 [Compound 42]

- rA1/hA3 (human A3 receptors; Table 2): ˜400
- rA2A percentage of specific binding displaced (A2A adenosine receptors; Table 2, at 10^−4 M): 50% (10^−4)
Compound: CCCOC(=O)c1c(-c2ccc(F)cc2)nc(CC)c(C(=O)SCC)c1CCC [Compound 27]

- rA1/hA3 (human A3 receptors; Table 2): 1.7
Compound: CCOC(=O)c1c(C)nc(-c2ccccc2)c(C(=O)OCC)c1C [Compound 33]

Continued, compound first:

Compound: CCOC(=O)C1=C(C)NC(C2CCCC2)=C(C(=O)OCc2ccccc2)C1C#Cc1ccccc1 (racemic) [Compound 72, 3-Ethyl 5-benzyl 2-methyl-4-phenylethynyl-6-cyclopentyl-1,4(±)-dihydropyridine-3,5-dicarboxylate]
- Ki (A1 adenosine receptors; Table 3): 17.1 ± 4.3 µM
- Ki (human A3 receptors; Table 3): 0.0505 µM
- rA1/hA3 (human A3 receptors; Table 3): 340
- Ki (A2A adenosine receptors; Table 3): 7.16 ± 1.56 µM

Compound: CCCOC(=O)c1c(-c2ccccc2)nc(CC)c2c1CCOC2=O [Compound 29]
- hA3 displacement of specific binding (class d) (human A3 receptors; Table 2, at 10^−4 M): d (10^−4) (Displacement of <10% of specific binding at the indicated concentration (M).)

Compound: CCOC(=O)C1=C(CC)NC(c2ccccc2)=C(C(=O)OCC)C1C (racemic) [Compound 74, 3,5-Diethyl 2-ethyl-6-phenyl-4-methyl-1,4-(±)-dihydropyridine-3,5-dicarboxylate]
- inhibition at 100 µM (A1 adenosine receptors; Table 3, at 10^−4 M): 20 ± 4%
- rA2A displacement of specific binding (class d) (A2A adenosine receptors; Table 3, at 10^−4 M): d (10^−4) (Displacement of < 10% of specific binding at the indicated concentration (M).)

Compound: CCOC(=O)C1=C(C)NC(c2ccccc2)=C(C(=O)OCC)C1C(OC)OC (racemic) [Compound 66, 3,5-Diethyl 2-methyl-6-phenyl-4-(dimethoxymethyl)-1,4-(±)-dihydropyridine-3,5-dicarboxylate]
- inhibition at 100 µM (A1 adenosine receptors; Table 3, at 10^−4 M): 32 ± 5%
- Ki (human A3 receptors; Table 3): 15.3 ± 3.9 µM
- rA1/hA3 (human A3 receptors; Table 3): >5
- rA2A displacement of specific binding (class d) (A2A adenosine receptors; Table 3, at 10^−4 M): d (10^−4) (Displacement of < 10% of specific binding at the indicated concentration (M).)

Compound: CCOC(=O)C1=C(C)NC(C2CCCCC2)=C(C(=O)OCc2ccccc2)C1C#Cc1ccccc1 (racemic) [Compound 73, 3-Ethyl 5-benzyl 2-methyl-4-phenylethynyl-6-cyclohexyl-1,4-(±)-dihydropyridine-3,5-dicarboxylate]
- inhibition at 100 µM (A1 adenosine receptors; Table 3, at 10^−4 M): 22 ± 2%
- inhibition at 100 µM (A2A adenosine receptors; Table 3, at 10^−4 M, read-out: rA2A % inhibition (percentage of specific binding displaced)): 20%

Compound: CCOC(=O)C1=C(c2ccccc2)NC(C)=C(C(=O)SCCOC)C1CC (racemic) [Compound 63, 5-Ethyl 2-methyl-4-ethyl-6-phenyl-3-[(2-methoxy-(ethylsulfanylcarbonyl)]-1,4-(±)-dihydropyridine-5-carboxylate]
- rA1 % inhibition (percentage of specific binding displaced) (A1 adenosine receptors; Table 3, at 10^−4 M): 36 ± 14%
- Ki (human A3 receptors; Table 3): 4.58 ± 0.35 µM
- rA1/hA3 (human A3 receptors; Table 3): >10
- Ki (A2A adenosine receptors; Table 3): 12.5 ± 2.5 µM

Compound: CCCOC(=O)C1=C(C)NC(c2ccccc2)=C(C(=O)OCC)C1C (racemic) [Compound 60, 3-Propyl 5-ethyl 2,4-dimethyl-6-phenyl-1,4-(±)-dihydropyridine-3,5-dicarboxylate]
- Ki (A1 adenosine receptors; Table 3): 1.74 ± 3.1 µM
- Ki (A2A adenosine receptors; Table 3): 28.9 ± 4.8 µM

Compound: CCOC(=O)c1c(C)nc(-c2ccccc2)c(C(=O)OCc2ccccc2)c1C#Cc1ccccc1 [Compound 43]
- Ki (A1 adenosine receptors; Table 2, compounds 33-58): 11.6 ± 4.8 µM
- Ki (human A3 receptors; Table 2, compounds 33-58): 2.75 ± 0.78 µM
- rA1/hA3 (human A3 receptors; Table 2): 4.2
- rA2A percentage of specific binding displaced (A2A adenosine receptors; Table 2, at 10^−4 M): 43 ± 20% (10^−4)

Compound: CCOC(=O)C1=C(C)NC(C2CC2)=C(C(=O)OCc2ccccc2)C1C#Cc1ccccc1 (racemic) [Compound 70, 3-Ethyl 5-benzyl 2-methyl-4-phenylethynyl-6-cyclopropyl-1,4-(±)-dihydropyridine-3,5-dicarboxylate]
- inhibition at 100 µM (A1 adenosine receptors; Table 3, at 10^−4 M): 22 ± 1%
- rA2A displacement of specific binding (class d) (A2A adenosine receptors; Table 3, at 10^−4 M): d (10^−4) (Displacement of < 10% of specific binding at the indicated concentration (M).)

Compound: CCOC(=O)C1=C(C)NC(C2CCC2)=C(C(=O)OCc2ccccc2)C1C#Cc1ccccc1 (racemic) [Compound 71, 3-Ethyl 5-benzyl 2-methyl-4-phenylethynyl-6-cyclobutyl-1,4-(±)-dihydropyridine-3,5-dicarboxylate]
- inhibition at 100 µM (A1 adenosine receptors; Table 3, at 10^−4 M): 36 ± 8%
- rA2A displacement of specific binding (class d) (A2A adenosine receptors; Table 3, at 10^−4 M): d (10^−4) (Displacement of < 10% of specific binding at the indicated concentration (M).)

Compound: CCOC(=O)C1=C(C)NC(c2ccccc2)=C(C(=O)OCC)C1CC (racemic) [Compound 61, 3,5-Diethyl 2-methyl-4-ethyl-6-phenyl-1,4-(±)-dihydropyridine-3,5-dicarboxylate]
- Ki (A2A adenosine receptors; Table 3): 21.8 ± 7.8 µM

Compound: CCOC(=O)c1c(-c2ccccc2)nc(CC)c2c1CCCNC2=O [Compound 30]
- rA2A displacement of specific binding (class d) (A2A adenosine receptors; Table 2, at 10^−4 M): d (10^−4) (Displacement of <10% of specific binding at the indicated concentration (M).)
